According to US20250102414A1, “A MICROFLUIDIC DEVICE FOR DETECTING AND CHARACTERIZING AT LEAST ONE ANALYTE, FOR EXAMPLE A CELL, IN A SAMPLE FLUID” (TECHNISCHE UNIVERSITEIT EINDHOVEN, priority 2022, published 2025):

Tests used:
MCF-7 cells [1] = assay: Label-free drug response analysis by electrical impedance (opacity) with the microfluidic device; type: cell-based; conditions: 1 μM STS, cultured 3 days under drug exposure, opacity clusters
Procedure: FIGS. 14a and 14b show the results of a drug response analysis for MCF-7 cells. As a first step, the viability of the cells was measured before and after analyzing these cells using one of the versions of the devices described in the present disclosure. […] Then, STS (with 1 μM concentration) were added to this well and the cells were cultured for another 3 days under the exposure of the drug.
(§1) In parallel, a control sample was also cultured under the same conditions without drug exposure was also analyzed for comparison. […] For the control sample, only one cluster, which were viable cells, were identified with 97% ratio for the total number of events. For the treated sample, 3 clusters were identified for viable, early apoptotic, and late apoptotic states with 44%, 19%, and 37% ratios, respectively. For validation, a commercially available apoptosis detection kit for fluorescent imaging were used and it provided the ratios of 47% viable and 53% apoptotic for the treated sample. A high-resolution drug response analysis were performed in a fully label free manner while keeping the cells intact, where the imaging required sample preparation and fixation of the cells, which kills the cells and the possibility of further functional analysis options.
Accordingly, embodiments of the present disclosure are capable of achieving measurement results when the electric field generating unit in the embodiments of the present disclosure delivers a voltage drop between electrodes of the present disclosure within the range of 0.1 to 0.5 V and, preferably, within the range of 0.2 to 0.4 V. The results shown in FIGS. 12, 13 and 14 were obtained with voltage values varying between 0.2-0.4 V for frequencies between 1-400 MHz with the maximum reachable voltage drop of 0.12 V, which is below the electroporation limit. […] These to be determined based on the sample, used electrolyte (medium conductivity), peripheral electronics (analyzers, power sources, etc.), size of the measurement volume, and the requirements of the analysis.

MCF-7 cells [2] = assay: Commercially available apoptosis detection kit for fluorescent imaging (validation); type: cell-based; conditions: 1 μM STS, 3 days
Procedure: as §1

With `CN[C@@H]1C[C@H]2O[C@@](C)([C@@H]1OC)n1c3ccccc3c3c4c(c5c6ccccc6n2c5c31)C(=O)NC4` [STS] the “ratio of early apoptotic cluster to total number of events” value (MCF-7 cells [1]) was 19%, the “ratio of late apoptotic cluster to total number of events” value (MCF-7 cells [1]) was 37% and the “ratio of viable cluster to total number of events” value (MCF-7 cells [1]) was 44%. It also gave a ratio apoptotic (MCF-7 cells [2]) of 53% and a ratio viable (MCF-7 cells [2]) of 47%.
